{
  "source": "patent US9663486B2",
  "about": "“Selectively substituted quinoline compounds” (EISAI R&D MANAGEMENT CO., LTD., priority 2013, dated 2017)",
  "target": "T1, mouse TLR7 (Mus musculus, UniProt P58681)",
  "T1 construct": "tissue Jackson Labs; host or cells: live female BALB/c mice",
  "T1 sequence (P58681 27-1050)": "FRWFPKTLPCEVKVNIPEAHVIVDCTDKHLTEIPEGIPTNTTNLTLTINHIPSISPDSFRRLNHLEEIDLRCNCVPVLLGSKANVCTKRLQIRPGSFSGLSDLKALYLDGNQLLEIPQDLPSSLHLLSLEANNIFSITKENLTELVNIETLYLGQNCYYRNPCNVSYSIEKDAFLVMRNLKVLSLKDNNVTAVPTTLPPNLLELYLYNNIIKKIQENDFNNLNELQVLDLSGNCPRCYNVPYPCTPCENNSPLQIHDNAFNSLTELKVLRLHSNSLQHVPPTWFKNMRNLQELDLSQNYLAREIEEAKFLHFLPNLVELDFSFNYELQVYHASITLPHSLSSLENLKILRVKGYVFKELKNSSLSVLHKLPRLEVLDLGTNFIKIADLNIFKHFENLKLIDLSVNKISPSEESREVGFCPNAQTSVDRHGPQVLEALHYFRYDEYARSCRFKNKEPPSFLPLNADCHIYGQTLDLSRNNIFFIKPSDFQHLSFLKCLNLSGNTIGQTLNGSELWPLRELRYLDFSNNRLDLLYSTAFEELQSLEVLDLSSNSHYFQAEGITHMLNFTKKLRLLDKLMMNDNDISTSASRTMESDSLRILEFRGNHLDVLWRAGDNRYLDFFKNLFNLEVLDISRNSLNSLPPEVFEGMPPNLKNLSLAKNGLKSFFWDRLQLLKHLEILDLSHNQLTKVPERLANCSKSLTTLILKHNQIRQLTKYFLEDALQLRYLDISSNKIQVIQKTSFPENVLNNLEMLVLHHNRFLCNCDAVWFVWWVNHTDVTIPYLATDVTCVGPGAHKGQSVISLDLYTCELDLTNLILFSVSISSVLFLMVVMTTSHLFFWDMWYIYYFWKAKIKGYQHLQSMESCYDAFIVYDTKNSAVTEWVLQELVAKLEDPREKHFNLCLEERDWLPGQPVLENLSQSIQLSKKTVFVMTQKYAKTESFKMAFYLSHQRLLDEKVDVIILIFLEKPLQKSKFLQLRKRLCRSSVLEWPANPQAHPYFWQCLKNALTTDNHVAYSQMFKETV",
  "test": "Short-term in vivo (STIV) assay, plasma IL-6 after R848",
  "settings": "plasma IL-6 after R848 s.c., BALB/c mice",
  "procedure": "To assess compound potency in vivo against mouse TLR7, a short-term in vivo (STIV) assay was utilized. Briefly, mice were orally dosed with compounds and at various time points afterwards were injected subcutaneously with agonist R848 to stimulate TLR7. The plasma IL-6 level following R848 stimulation was then measured by ELISA to assess compound potency and duration-of-action. […] Therefore, the activity of compounds in the STIV assay can be confidently attributed to their modulation of the TLR7 pathway.\nSix to eight week old female BALB/c mice (Jackson Labs, Bar Harbor, Me.) were dosed by oral gavage in 200 ul volume with antagonist compounds formulated in 0.5% aqueous methyl-cellulose (Sigma, St. Louis, Mo.). At various time points afterwards, mice were injected subcutaneously (s.c.) in 100 ul volume with 15 ug R848 (Resiquimod; GLSynthesis, Worcester, Mass.) to stimulate TLR7. Blood plasma was collected by cardiac puncture, and levels of IL-6 at 1.5 hours after TLR7 stimulation were then assessed by standard ELISA procedure according to the manufacturer's recommended protocol (R&D Systems).",
  "data": [
    {"smiles": "C[C@H]1C[C@@H](N)CN(c2ccc(C#N)c3ncccc23)C1", "note": "[ER-888840, 5-((3R,5S)-3-amino-5-methylpiperidin-1-yl)quinoline-8-carbonitrile]", "values": [
      {"measurement": "% Suppression vs. Vehicle", "setting": "6 h after oral dose, 33 mg/kg", "value": 100, "unit": "%"},
      {"measurement": "% Suppression vs. Vehicle", "setting": "13 hr after oral dose, 11 mg/kg", "value": 53, "unit": "%"},
      {"measurement": "% Suppression vs. Vehicle", "setting": "13 hr after oral dose, 33 mg/kg", "value": 95, "unit": "%"},
      {"measurement": "% Suppression vs. Vehicle", "setting": "13 hr after oral dose, 100 mg/kg", "value": 100, "unit": "%"},
      {"measurement": "% Suppression vs. Vehicle", "setting": "24 hr after oral dose, 11 mg/kg", "value": 24, "unit": "%"},
      {"measurement": "% Suppression vs. Vehicle", "setting": "24 hr after oral dose, 33 mg/kg", "value": 0, "unit": "%"},
      {"measurement": "% Suppression vs. Vehicle", "setting": "24 hr after oral dose, 100 mg/kg", "value": 98, "unit": "%"},
      {"measurement": "% Suppression vs. Vehicle", "setting": "24 hr after oral dose, 300 mg/kg", "value": 100, "unit": "%"}
    ]}
  ]
}
